Laboratory results reported in patent EP4635500A1, “THERAPEUTIC AGENT FOR BACTERIAL INFECTION” (Sumitomo Pharma Co., Ltd., priority 2022, dated 2024).
In brackets after ≈: the same amount, converted by molar mass. Where two headings read alike, the source gives them in different places.

Key:
[1] = mouse, in vivo
A. baumannii [2] = experiment: MIC, broth microdilution, 6 strains (Example 6, Table 7); assay type: cell-based; details: Acinetobacter baumannii, Carbapenem-resistant, read-out: MIC
E. coli = experiment: MIC, Gram-negative bacteria clinically isolated in the United States (Example 8, Table 16); assay type: cell-based; details: E. coli (80 strains) isolated in the United States, Compound A µg/mL in parentheses
Klebsiella aerogenes = experiment: MIC, broth microdilution, standard strains and Japanese clinical isolates (Example 5, Table 4); assay type: cell-based; details: carbapenemase genes -
Serratia marcescens = experiment: as above; assay type: cell-based
A. baumannii [3] = experiment: MIC, Gram-negative bacteria clinically isolated in the United States (Example 8, Table 16); assay type: cell-based; details: Acinetobacter baumannii; A. baumannii (80 strains) isolated in the United States; Compound A µg/mL in parentheses
[4] = system: carbapenemase-producing Enterobacteriaceae (CPE); experiment: MIC with human plasma or human serum albumin added (Example 12, Table 28); assay type: cell-based
[5] = system: carbapenemase-producing Enterobacteriaceae (CPE); experiment: Bactericidal activity by bactericidal curve method (Example 10); assay type: cell-based, E. coli, Klebsiella pneumoniae; details: MEPM ≥1 x MIC; within 1 to 2 hours after culture; all four strains
[6] = system: E. coli ATCCBAA-2469 producing NDM-1; experiment: Systemic infection lethal mouse model, ED50 (Example 14, Table 32); details: 7 days after infection
Protocol: The test strains on the agar medium were suspended in saline and adjusted to a Klett unit of about 200 using a Klett Photoelectric Colorimeter. […] Male ICR mice were inoculated intraperitoneally with 0.2 mL of the bacterial suspension. Two hours after the inoculation, saline or a solution for administering the agent at each concentration was administered subcutaneously to the mice in a single dose. The number of mice that survived from Day 1 to Day 7 after infection was recorded.

P. aeruginosa [7] = experiment: Systemic infection lethal mouse model, ED50 (Example 15, Table 33); details: for Survival rate: 7 days after infection; for ED50: Pseudomonas aeruginosa, in Mus musculus, sc
Protocol: The test strains on the agar medium were suspended in saline and adjusted to a Klett unit of about 200 using a Klett Photoelectric Colorimeter. […] Male ICR mice were inoculated intraperitoneally with 0.2 mL of the bacterial suspension. Two hours after the inoculation, saline or a solution for administering the agent of each concentration was administered subcutaneously to the mice in a single dose. The number of mice that survived from Day 1 to Day 7 after infection was recorded.

Klebsiella pneumoniae = experiment: MIC, Gram-negative bacteria clinically isolated in the United States (Example 8, Table 16); assay type: cell-based; details: K. pneumoniae (80 strains) isolated in the United States, Compound A µg/mL in parentheses
P. aeruginosa [8] = experiment: as above; assay type: cell-based; details: Pseudomonas aeruginosa; P. aeruginosa (80 strains) isolated in the United States; Compound A µg/mL in parentheses
[9] = cited from earlier work
[10] = system: Serine-carbapenemase producing strains (N = 19); experiment: MIC50/MIC90 for carbapenemase-producing isolates (Example 5, Table 6); assay type: cell-based; design: unit not given here; details: Serine-carbapenemase (N = 19): KPC-2 (7), KPC-3 (8), KPC-38 (1), OXA-48 (2), OXA-181 (1)

With `C[C@@H](O)[C@H]1C(=O)N2C(C(=O)O)=C(S[C@@H]3CN[C@H](C(=O)N(C)C)C3)[C@H](C)[C@H]12` [MEPM, meropenem] the “%fT > 8 µg/mL” value [1] was ≥ 40%, the MIC (A. baumannii [2]; A. baumannii strain with AMR gene ADC-25, OXA-23, OXA-66, TEM-ID) was 64 µg/mL (≈ 167 µM) and the MIC (A. baumannii [2]; A. baumannii strain with AMR gene ADC-25, XA-23, OXA-66, strA, strB, sul2, TEM-1D) was 64 µg/mL (≈ 167 µM). The MIC (A. baumannii [2]; A. baumannii strain with AMR gene OXA-23, OXA-69, TEM-1D) was 16 µg/mL (≈ 41.7 µM), the MICrange (E. coli) was ≤0.125 to 16 µg/mL and the MIC50 (E. coli; Escherichia coli) was ≤ 0.125 µg/mL. The MIC90 (E. coli; Escherichia coli) was ≤ 0.125 µg/mL, the MIC (Klebsiella aerogenes; KUB3614 Klebsiella aerogenes Clinical isolate) was 2 µg/mL (≈ 5.22 µM) and the MIC (Klebsiella aerogenes; KUB3615 Klebsiella aerogenes Clinical isolate) was 0.12 µg/mL (≈ 0.313 µM). The MIC (Serratia marcescens; KUB3169 Serratia marcescens Clinical isolate, carbapenemase genes Unidentified, read-out: MIC) was 2 µg/mL (≈ 5.22 µM), the MIC (Serratia marcescens; KUB3170 Serratia marcescens Clinical isolate, carbapenemase genes Unidentified) was 2 µg/mL (≈ 5.22 µM) and the MIC (Serratia marcescens; KUB3171 Serratia marcescens Clinical isolate, carbapenemase genes -) was 2 µg/mL (≈ 5.22 µM). The MIC50 (A. baumannii [3]) was 2 µg/mL (≈ 5.22 µM), the MIC90 (A. baumannii [3]) was 64 µg/mL (≈ 167 µM) and the MIC ([4]; Escherichia coli, ATCC25922, read-out: MICs of MEPM, E. coli ATCC 25922 (quality control strain), Albumin 0% (standard condition)) was 0.015 µg/mL (≈ 0.0391 µM). It also gave an MIC ([4]; Escherichia coli, ATCC25922, read-out: MICs of MEPM, E. coli ATCC 25922 (quality control strain), Albumin 4%) of 0.03 µg/mL (≈ 0.0782 µM), an MIC ([4]; Escherichia coli, ATCC25922, read-out: MICs of MEPM, E. coli ATCC 25922 (quality control strain), Plasma 20%) of 0.03 µg/mL (≈ 0.0782 µM) and an MIC ([4]; Escherichia coli, ATCC25922, read-out: MICs of MEPM, E. coli ATCC 25922 (quality control strain), Plasma 50%) of 0.03 µg/mL (≈ 0.0782 µM). It also gave an MIC ([4]; Escherichia coli, ATCCBAA2340, read-out: MICs of MEPM, E. coli ATCC BAA-2340 (KPC-3), Albumin 0% (standard condition)) of 4 µg/mL (≈ 10.4 µM), an MIC ([4]; Escherichia coli, ATCCBAA2340, read-out: MICs of MEPM, E. coli ATCC BAA-2340 (KPC-3), Albumin 4%) of 4 µg/mL (≈ 10.4 µM) and an MIC ([4]; Escherichia coli, ATCCBAA2340, read-out: MICs of MEPM, E. coli ATCC BAA-2340 (KPC-3), Plasma 20%) of 4 µg/mL (≈ 10.4 µM). The MIC ([4]; Escherichia coli, ATCCBAA2340, read-out: MICs of MEPM, E. coli ATCC BAA-2340 (KPC-3), Plasma 50%) was 0.5 µg/mL (≈ 1.3 µM), the MIC ([4]; Escherichia coli, ATCCBAA2469, read-out: MICs of MEPM, E. coli ATCC BAA-2469 (NDM-1), Albumin 0% (standard condition)) was 32 µg/mL (≈ 83.4 µM) and the MIC ([4]; Escherichia coli, ATCCBAA2469, read-out: MICs of MEPM, E. coli ATCC BAA-2469 (NDM-1), Albumin 4%) was 16 µg/mL (≈ 41.7 µM). The MIC ([4]; Escherichia coli, ATCCBAA2469, read-out: MICs of MEPM, E. coli ATCC BAA-2469 (NDM-1), Plasma 20%) was ≤ 0.12 µg/mL, the MIC ([4]; Escherichia coli, ATCCBAA2469, read-out: MICs of MEPM, E. coli ATCC BAA-2469 (NDM-1), Plasma 50%) was ≤ 0.12 µg/mL and the MIC ([4]; Escherichia coli, NCTC13476, read-out: MICs of MEPM, E. coli NCTC 13476 (IMP-1), Albumin 0% (standard condition)) was 4 µg/mL (≈ 10.4 µM). The MIC ([4]; Escherichia coli, NCTC13476, read-out: MICs of MEPM, E. coli NCTC 13476 (IMP-1), Albumin 4%) was 4 µg/mL (≈ 10.4 µM), the MIC ([4]; Escherichia coli, NCTC13476, read-out: MICs of MEPM, E. coli NCTC 13476 (IMP-1), Plasma 20%) was 1 µg/mL (≈ 2.61 µM) and the MIC ([4]; Escherichia coli, NCTC13476, read-out: MICs of MEPM, E. coli NCTC 13476 (IMP-1), Plasma 50%) was 0.5 µg/mL (≈ 1.3 µM). The MIC ([4]; Klebsiella pneumoniae, ATCCBAA2342, read-out: MICs of MEPM, K. pneumoniae ATCC BAA-2342 (KPC-3), Albumin 0% (standard condition)) was 16 µg/mL (≈ 41.7 µM), the MIC ([4]; Klebsiella pneumoniae, ATCCBAA2342, read-out: MICs of MEPM, K. pneumoniae ATCC BAA-2342 (KPC-3), Albumin 4%) was 32 µg/mL (≈ 83.4 µM) and the MIC ([4]; Klebsiella pneumoniae, ATCCBAA2342, read-out: MICs of MEPM, K. pneumoniae ATCC BAA-2342 (KPC-3), Plasma 20%) was 16 µg/mL (≈ 41.7 µM). For the same compound, the MIC ([4]; Klebsiella pneumoniae, ATCCBAA2342, read-out: MICs of MEPM, K. pneumoniae ATCC BAA-2342 (KPC-3), Plasma 50%) was 16 µg/mL (≈ 41.7 µM), the MIC ([4]; Klebsiella pneumoniae, ATCCBAA2344, read-out: MICs of MEPM, K. pneumoniae ATCC BAA-2344 (KPC-2), Albumin 0% (standard condition)) was 16 µg/mL (≈ 41.7 µM) and the MIC ([4]; Klebsiella pneumoniae, ATCCBAA2344, read-out: MICs of MEPM, K. pneumoniae ATCC BAA-2344 (KPC-2), Albumin 4%) was 32 µg/mL (≈ 83.4 µM). The MIC ([4]; Klebsiella pneumoniae, ATCCBAA2344, read-out: MICs of MEPM, K. pneumoniae ATCC BAA-2344 (KPC-2), Plasma 20%) was 16 µg/mL (≈ 41.7 µM), the MIC ([4]; Klebsiella pneumoniae, ATCCBAA2344, read-out: MICs of MEPM, K. pneumoniae ATCC BAA-2344 (KPC-2), Plasma 50%) was 16 µg/mL (≈ 41.7 µM) and the MIC ([4]; Klebsiella pneumoniae, ATCCBAA2470, read-out: MICs of MEPM, K. pneumoniae ATCC BAA-2470 (NDM-1), Albumin 0% (standard condition)) was 16 µg/mL (≈ 41.7 µM). It also gave an MIC ([4]; Klebsiella pneumoniae, ATCCBAA2470, read-out: MICs of MEPM, K. pneumoniae ATCC BAA-2470 (NDM-1), Albumin 4%) of 8 µg/mL (≈ 20.9 µM), an MIC ([4]; Klebsiella pneumoniae, ATCCBAA2470, read-out: MICs of MEPM, K. pneumoniae ATCC BAA-2470 (NDM-1), Plasma 20%) of 0.5 µg/mL (≈ 1.3 µM) and an MIC ([4]; Klebsiella pneumoniae, ATCCBAA2470, read-out: MICs of MEPM, K. pneumoniae ATCC BAA-2470 (NDM-1), Plasma 50%) of 0.5 µg/mL (≈ 1.3 µM). It also gave an MIC ([4]; Klebsiella pneumoniae, ATCCBAA2524, read-out: MICs of MEPM, K. pneumoniae ATCC BAA-2524 (OXA-48), Albumin 0% (standard condition)) of 1 µg/mL (≈ 2.61 µM), an MIC ([4]; Klebsiella pneumoniae, ATCCBAA2524, read-out: MICs of MEPM, K. pneumoniae ATCC BAA-2524 (OXA-48), Albumin 4%) of 0.5 µg/mL (≈ 1.3 µM) and an MIC ([4]; Klebsiella pneumoniae, ATCCBAA2524, read-out: MICs of MEPM, K. pneumoniae ATCC BAA-2524 (OXA-48), Plasma 20%) of 2 µg/mL (≈ 5.22 µM). It also gave an MIC ([4]; Klebsiella pneumoniae, ATCCBAA2524, read-out: MICs of MEPM, K. pneumoniae ATCC BAA-2524 (OXA-48), Plasma 50%) of 4 µg/mL (≈ 10.4 µM), an MIC ([4]; read-out: MICs of MEPM, K pneumoniae NCTC13439 (VIM-1), Albumin 0% (standard condition)) of 4 µg/mL (≈ 10.4 µM) and an MIC ([4]; read-out: MICs of MEPM, K pneumoniae NCTC13439 (VIM-1), Albumin 4%) of 2 µg/mL (≈ 5.22 µM). For the same compound, the MIC ([4]; read-out: MICs of MEPM, K pneumoniae NCTC13439 (VIM-1), Plasma 20%) was ≤ 0.12 µg/mL, the MIC ([4]; read-out: MICs of MEPM, K pneumoniae NCTC13439 (VIM-1), Plasma 50%) was ≤ 0.12 µg/mL and the “reduction in the number of bacteria compared to preculture level” value [5] was 3 log10. For the same compound, the Survival rate ([6]; Dose 10 mg/kg) was 10%, the Survival rate ([6]; Dose 30 mg/kg) was 0% and the Survival rate ([6]; Dose 60 mg/kg) was 0%. For the same compound, the Survival rate ([6]; Dose 100 mg/kg) was 80%, the Survival rate (P. aeruginosa [7]; CDC-90 (Serine), Dose 10 mg/kg) was 0% and the Survival rate (P. aeruginosa [7]; CDC-90 (Serine), Dose 30 mg/kg) was 10%. For the same compound, the Survival rate (P. aeruginosa [7]; CDC-90 (Serine), Dose 100 mg/kg) was 90%, the Survival rate (P. aeruginosa [7]; CDC-90 (Serine), Dose 300 mg/kg) was 100% and the Survival rate (P. aeruginosa [7]; CDC-110 (Metallo), Dose 100 mg/kg) was 0%. It also gave a Survival rate (P. aeruginosa [7]; CDC-110 (Metallo), Dose 150 mg/kg) of 30%, a Survival rate (P. aeruginosa [7]; CDC-110 (Metallo), Dose 200 mg/kg) of 60% and a Survival rate (P. aeruginosa [7]; CDC-110 (Metallo), Dose 300 mg/kg) of 60%. For the same compound, the ED50 (P. aeruginosa [7]; 2 h, read-out: ED50 of MEPM (95% confidence intervals), CDC-90 (Serine), single subcutaneous dose 2 hours after infection, with cilastatin at 100 mg/kg) was 54.8 mg/kg, the ED50 (P. aeruginosa [7]; 2 h, read-out: ED50 of MEPM (95% confidence intervals), CDC-110 (Metallo), single subcutaneous dose 2 hours after infection, with cilastatin at 100 mg/kg) was 218 mg/kg and the ED50 (P. aeruginosa [7]; read-out: ED50 of MEPM, P. aeruginosa CDC-90 (KPC-5), single s.c. dose, with cilastatin 100 mg/kg) was 54.8 mg/kg. The ED50 (P. aeruginosa [7]; read-out: ED50 of MEPM, P. aeruginosa CDC-110 (VIM-2), single s.c. dose, with cilastatin 100 mg/kg) was 218 mg/kg, the MIC50 (Klebsiella pneumoniae) was ≤ 0.125 µg/mL and the MIC90 (Klebsiella pneumoniae) was 4 µg/mL (≈ 10.4 µM). The MIC50 (P. aeruginosa [8]) was 2 µg/mL (≈ 5.22 µM), the MIC90 (P. aeruginosa [8]) was 32 µg/mL (≈ 83.4 µM) and the “human protein binding rate” value ([9]; Reference 2) was 2%. The Cmax ([9]; human, 2 g intravenously for 3 hours every 8 hours, Reference 3) was 46000 ng/mL.
Compound colistin has an MIC50 [10] of 0.25 and an MIC90 [10] of 2.
